From PubChem BioAssay AID330 (DTP/NCI, 2004)
Where “and” joins values, the source holds several entries; their conditions need not be identical. Identical values can stand only once. Toxic doses and inconclusive results are not listed. The calls were made as follows: active = survival T/C of 150% or more; inactive = T/C below 125% in these data.

Tested on: P388 leukemia ip, CD2F1 mice, survival T/C
Assay: NCI In Vivo Anticancer Drug Screen. Data for tumor model P388 Leukemia (intraperitoneal) in CD2F1 (CDF1) mice
Conditions: endpoint: median survival time, higher = longer survival
Summary of the method: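 Mice carrying the transplanted tumor received test compound or vehicle. Survival was recorded in each group, and the value is the treated-group measurement divided by that of the vehicle-treated control group.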

[1] = dose: 50.0 mg/kg/injection, schedule: Q04DX003 (ip), vehicle: saline with Tween-80
[2] = dose: 100.0 mg/kg/injection, schedule: Q04DX003 (ip), vehicle: saline with Tween-80
[3] = dose: 200.0 mg/kg/injection, schedule: Q04DX003 (ip), vehicle: saline with Tween-80
[4] = dose: 60.0 mg/kg/injection, schedule: Q01DX005 (ip), vehicle: saline with Tween-80
[5] = dose: 120.0 mg/kg/injection, schedule: Q01DX005 (ip), vehicle: saline with Tween-80
[6] = dose: 50.0 mg/kg/injection, schedule: Q01DX005 (ip), vehicle: saline with Tween-80
[7] = dose: 100.0 mg/kg/injection, schedule: Q01DX005 (ip), vehicle: saline with Tween-80
[8] = dose: 200.0 mg/kg/injection, schedule: Q01DX005 (ip), vehicle: saline with Tween-80
[9] = dose: 12.5 mg/kg/injection, schedule: Q01DX009 (ip), vehicle: Klucel (hydroxypropylcellulose) (HPC)
[10] = dose: 25.0 mg/kg/injection, schedule: Q01DX009 (ip), vehicle: Klucel (hydroxypropylcellulose) (HPC)
[11] = dose: 50.0 mg/kg/injection, schedule: Q01DX009 (ip), vehicle: Klucel (hydroxypropylcellulose) (HPC)
[12] = dose: 100.0 mg/kg/injection, schedule: Q01DX009 (ip), vehicle: Klucel (hydroxypropylcellulose) (HPC)
[13] = dose: 100.0 mg/kg/injection, schedule: Q01DX009 (ip), vehicle: saline with Tween-80
[14] = dose: 200.0 mg/kg/injection, schedule: Q01DX009 (ip), vehicle: saline with Tween-80
[15] = dose: 400.0 mg/kg/injection, schedule: Q01DX009 (ip), vehicle: saline with Tween-80
[16] = dose: 200.0 mg/kg/injection, schedule: Q01DX009 (ip), vehicle: Klucel (hydroxypropylcellulose) (HPC)
[17] = dose: 50.0 mg/kg/injection, schedule: Q01DX009 (ip), vehicle: saline with Tween-80
[18] = dose: 50.0 mg/kg/injection, schedule: Q01DX005 (ip), vehicle: saline
[19] = dose: 100.0 mg/kg/injection, schedule: Q01DX005 (ip), vehicle: saline
[20] = dose: 50.0 mg/kg/injection, schedule: Q01DX005 (ip), vehicle: Klucel (hydroxypropylcellulose) (HPC)
[21] = dose: 100.0 mg/kg/injection, schedule: Q01DX005 (ip), vehicle: Klucel (hydroxypropylcellulose) (HPC)
[22] = dose: 200.0 mg/kg/injection, schedule: Q01DX005 (ip), vehicle: Klucel (hydroxypropylcellulose) (HPC)

Measured: T/C

CC(=O)C1C(=O)OC(C)=C(C(=O)O)C1=O (stereo unspecified)
inactive: [1] 109 % of control | [2] 109 % of control | [3] 100 % of control

COC(=O)C1(CC(=O)c2ccc(F)cc2)NC(=S)NC(=O)C1C#N (stereo unspecified)
inactive: [4] 99 % of control | [5] 98 % of control | dose: 240.0 mg/kg/injection, schedule: Q01DX005 (ip), vehicle: saline with Tween-80 106 % of control

CCOc1c(C)cc(Cc2ccc3c(c2)OCO3)cc1C
inactive: [6] 108 % of control | [7] 101 % of control | [8] 92 % of control

Cc1ccc(-c2cc(N)n(-c3nnc(-c4ccccc4)c(-c4ccccc4)n3)n2)cc1
inactive: [6] 105 % of control | [7] 105 % of control | [8] 93 % of control

CCCCn1c(C)nc2c(N)cc(C(F)(F)F)cc21
inactive: dose: 3.12 mg/kg/injection, schedule: Q01DX009 (ip), vehicle: Klucel (hydroxypropylcellulose) (HPC) 100 % of control and 92 % of control | dose: 6.25 mg/kg/injection, schedule: Q01DX009 (ip), vehicle: Klucel (hydroxypropylcellulose) (HPC) 105 % of control and 87 % of control | [9] 121 % of control and 97 % of control | dose: 25.0 mg/kg/injection, schedule: Q01DX001 (ip), vehicle: Klucel (hydroxypropylcellulose) (HPC) 111 % of control | [10] 107 % of control and 89 % of control and 93 % of control | dose: 50.0 mg/kg/injection, schedule: Q01DX001 (ip), vehicle: Klucel (hydroxypropylcellulose) (HPC) 115 % of control | [11] 101 % of control | dose: 100.0 mg/kg/injection, schedule: Q01DX001 (ip), vehicle: Klucel (hydroxypropylcellulose) (HPC) 115 % of control | [12] 105 % of control | dose: 200.0 mg/kg/injection, schedule: Q01DX001 (ip), vehicle: Klucel (hydroxypropylcellulose) (HPC) 114 % of control | dose: 400.0 mg/kg/injection, schedule: Q01DX001 (ip), vehicle: Klucel (hydroxypropylcellulose) (HPC) 118 % of control

COC(=O)c1cccc(COc2ccc([N+](=O)[O-])cc2Cl)c1
inactive: [13] 100 % of control | [14] 100 % of control | [15] 110 % of control

CN(C)c1ccc2c(Cl)cc(Cl)nc2c1
inactive: [9] 109 % of control | [10] 109 % of control | [11] 107 % of control | [12] 106 % of control | [16] 103 % of control | dose: 400.0 mg/kg/injection, schedule: Q01DX009 (ip), vehicle: Klucel (hydroxypropylcellulose) (HPC) 104 % of control

O=C1CCSCC1
inactive: [17] 99 % of control | [13] 113 % of control | [14] 100 % of control | [15] 98 % of control

O=c1c2cc(O)ccc2sc2c(CO)ccc(NCCN3CCCC3)c12
inactive: dose: 19.25 mg/kg/injection, schedule: Q01DX005 (ip), vehicle: Klucel (hydroxypropylcellulose) (HPC) 101 % of control | dose: 38.5 mg/kg/injection, schedule: Q01DX005 (ip), vehicle: Klucel (hydroxypropylcellulose) (HPC) 100 % of control | dose: 77.0 mg/kg/injection, schedule: Q01DX005 (ip), vehicle: Klucel (hydroxypropylcellulose) (HPC) 106 % of control | dose: 154.0 mg/kg/injection, schedule: Q01DX005 (ip), vehicle: Klucel (hydroxypropylcellulose) (HPC) 109 % of control

Cc1cc2nc(CC(=O)c3ccncc3)c(=O)[nH]c2cc1C
inactive: [4] 95 % of control | [5] 87 % of control

OCC1(C(O)(C2CC2)C2(CO)CC2)CC1
inactive: [6] 105 % of control | [7] 105 % of control | [8] 100 % of control

CC(=NC(C)(C)C)N1CCCC1
inactive: dose: 12.5 mg/kg/injection, schedule: Q01DX005 (ip), vehicle: saline 102 % of control | dose: 25.0 mg/kg/injection, schedule: Q01DX005 (ip), vehicle: saline 102 % of control | [18] 101 % of control | [19] 95 % of control

O=[n+]1c2c(n([O-])c3cc(Cl)c(Cl)cc31)CCCCC2
inactive: [17] 91 % of control | [13] 99 % of control | [14] 99 % of control

COc1ccc(CN2CC(C)N(N=Cc3c4c(O)c5c(O)c(C)c6c(c5c3O)C(=O)C(C)(O/C=C/C(OC)C(C)C(OC(C)=O)C(C)C(O)C(C)C(O)C(C)/C=C/C=C(\C)C(=O)N4)O6)C(C)C2)cc1 (stereo unspecified)
inactive: dose: 25.0 mg/kg/injection, schedule: Q01DX009 (ip), vehicle: saline with Tween-80 110 % of control | [17] 103 % of control and 116 % of control | dose: 50.0 mg/kg/injection, schedule: Q01DX009 (ip), vehicle: suspension in saline 112 % of control | [13] 113 % of control and 119 % of control | dose: 100.0 mg/kg/injection, schedule: Q01DX009 (ip), vehicle: suspension in saline 108 % of control | [14] 119 % of control | dose: 200.0 mg/kg/injection, schedule: Q01DX009 (ip), vehicle: suspension in saline 91 % of control

CCOC(=O)C1(CC(C)C)CCOC1=O (stereo unspecified)
inactive: [20] 99 % of control | [21] 96 % of control | [22] 97 % of control

C=C(C(=O)OC)C(O)CC (stereo unspecified)
inactive: [18] 91 % of control | [19] 107 % of control | dose: 200.0 mg/kg/injection, schedule: Q01DX005 (ip), vehicle: saline 100 % of control

Nc1ccc(C(=O)O)c(C(=O)O)c1
inactive: [17] 100 % of control | [1] 91 % of control | [13] 104 % of control | [2] 91 % of control | [14] 100 % of control | [3] 91 % of control

CCOc1nc2ccc(NC(C)C(=O)N3CCN(CCc4ccccc4)CC3)cc2s1 (stereo unspecified)
inactive: [20] 100 % of control | [21] 100 % of control | [22] 112 % of control

C[N+]1(C)[B]C[N+](C)(C)[B-]1
inactive: [11] 92 % of control | [12] 105 % of control | [16] 103 % of control

CCOC1(OCC)Cc2nc3ccccc3cc21
inactive: dose: 50.0 mg/kg/injection, schedule: Q01DX005 (ip), vehicle: saline + Tween-80 + alcohol 106 % of control | dose: 100.0 mg/kg/injection, schedule: Q01DX005 (ip), vehicle: saline + Tween-80 + alcohol 109 % of control | dose: 200.0 mg/kg/injection, schedule: Q01DX005 (ip), vehicle: saline + Tween-80 + alcohol 106 % of control

Cc1ccc(S(=O)(=O)OI(O)c2ccccc2)cc1
inactive: dose: 50.0 mg/kg/injection, schedule: Q01DX009 (ip), vehicle: water 108 % of control | dose: 100.0 mg/kg/injection, schedule: Q01DX009 (ip), vehicle: water 104 % of control

O=S(=O)(O)O.O=S(=O)([O-])[O-].O=[N+]([O-])O.[Co+3].[Co+3].[NH2-].[NH2-].[NH2-].[NH2-].[NH2-].[NH2-].[NH2-].[NH2-].[NH2-]
inactive: dose: 1.0 mg/kg/injection, schedule: Q01DX009 (ip), vehicle: saline 98 % of control | dose: 2.0 mg/kg/injection, schedule: Q01DX009 (ip), vehicle: saline 93 % of control

CN1C(=O)C(=O)N(C)C(=O)C1=O
inactive: [20] 100 % of control | [21] 93 % of control | [22] 103 % of control

CC(=O)OCCCCCCCCCCCCCCCCCC1=C(C)C(=O)OC1=O
inactive: dose: 25.0 mg/kg/injection, schedule: Q01DX005 (ip), vehicle: Klucel (hydroxypropylcellulose) (HPC) 96 % of control | [20] 97 % of control | [21] 103 % of control | [22] 99 % of control | dose: 400.0 mg/kg/injection, schedule: Q01DX005 (ip), vehicle: Klucel (hydroxypropylcellulose) (HPC) 92 % of control

O=C1CCC2(CC1C1C=CCC1)OCCO2 (stereo unspecified)
inactive: dose: 100.0 mg/kg/injection, schedule: Q01DX009 (ip), vehicle: saline sonified 100 % of control | dose: 200.0 mg/kg/injection, schedule: Q01DX009 (ip), vehicle: saline sonified 116 % of control | dose: 400.0 mg/kg/injection, schedule: Q01DX009 (ip), vehicle: saline sonified 100 % of control

C[N+](C)(C)C
inactive: dose: 2.5 mg/kg/injection, schedule: Q01DX009 (ip), vehicle: saline 110 % of control | dose: 5.0 mg/kg/injection, schedule: Q01DX009 (ip), vehicle: saline 100 % of control | dose: 10.0 mg/kg/injection, schedule: Q01DX009 (ip), vehicle: saline 100 % of control

Brc1cc(-c2ccccc2)no1
inactive: [11] 104 % of control | [12] 111 % of control | [16] 109 % of control
